Reference: US6476263B1, “Compounds for inhibiting β-amyloid peptide release and/or its synthesis” (Elan Pharmaceuticals, Inc., priority 1996, dated 2002)
Non-standard residues stand in square brackets, D forms with d. Residues, ends and D or L forms follow the SMILES beside them. ξ: configuration not given here. *: point of attachment. Isovaleryl = CC(C)CC(=O)*; ξChg = NC(C(=O)O)C1CCCCC1

Work on `CC(C)COC(=O)[C@H](C)NC(=O)[C@@H](NC(=O)[C@@H](NC(=O)CC(C)C)C(C)C)c1ccccc1` [Example 83, N-[N-[N-(Isovaleryl)-L-valinyl]-L-phenylglycinyl]-L-alanine iso-butyl Ester] yielded a melting point of 217 to 221 °C. Compound `CC(C)COC(=O)[C@H](C)NC(=O)[C@H](Cc1ccccc1)NC(=O)CC(C)C` [Example 84, N-[N-(Isovaleryl)-L-phenylalaninyl]-L-alanine iso-butyl Ester] has a melting point of 135 to 138 °C. For `CCOC(=O)[C@H](C)NC(=O)[C@H](C)NC(=O)Cc1cc(F)cc(F)c1` [Example 85, N-[N-(3,5-Difluorophenylacetyl)-L-alaninyl]-L-alanine Ethyl Ester], the melting point was 197 to 199 °C. `COC(=O)[C@H](Cc1c[nH]c2ccccc12)NC(=O)[C@H](C)NC(=O)Cc1cc(F)cc(F)c1` [Example 106, N-[N-(3,5-Difluorophenylacetyl)-L-alaninyl]-L-tryptophan Methyl Ester] gave a melting point of 191 to 193 °C. Compound `CCOC(=O)[C@H](C)NC(=O)[C@@H](NC(=O)Cc1ccccc1)c1ccccc1` [Example 108, N-[N-(Phenylacetyl)-L-phenylglycinyl]-L-alanine Ethyl Ester] (HELM PEPTIDE1{[O=C(Cc1ccccc1)[*:2]].[Phg].A.[CCO[*:1]]}$$$$V2.0) has a melting point of 208 to 210 °C. With `COC(=O)[C@@H](NC(=O)[C@H](Cc1ccccc1)NC(=O)[C@H](C)NC(=O)Cc1cc(F)cc(F)c1)c1ccccc1` [Example 109, N-[N-[N-(3,5-Difluorophenylacetyl)-L-alaninyl]-L-phenylalaninyl]-L-phenylglycine Methyl Ester] the melting point was 203 to 207 °C. Work on `CCOC(=O)[C@H](C)NC(=O)[C@@H](NC(=O)CC1CCCCC1)c1ccccc1` [Example 110, N-[N-(Cyclohexylacetyl)L-phenylglycinyl]-L-alanine Ethyl Ester] yielded a melting point of 196 to 198 °C. In the case of `COC(=O)[C@@H](NC(=O)[C@H](C)NC(=O)Cc1cc(F)cc(F)c1)c1ccccc1` [Example 111, N-[N-(3,5-Difluorophenylacetyl)-L-alaninyl]-L-phenylglycine Methyl Ester], the melting point is reported as 198 to 200 °C. `COC(=O)[C@@H](NC(=O)[C@H](C)NC(=O)[C@H](C)NC(=O)Cc1cc(F)cc(F)c1)c1ccccc1` [Example 112, N-[N-[N-(3,5-Difluorophenylacetyl)-L-alaninyl]-L-alaninyl]-L-phenylglycine Methyl Ester] showed a melting point of 243 to 245 °C. `CCOC(=O)[C@H](CO)NC(=O)[C@H](C)NC(=O)Cc1cccc([N+](=O)[O-])c1` [Example 117, N-[N-(3-Nitrophenylacetyl)-L-alaninyl]-L-serine Ethyl Ester] gave a melting point of 179 to 181 °C. `CCOC(=O)C(C)(NC(=O)[C@H](C)NC(=O)Cc1cc(F)cc(F)c1)c1ccccc1` (stereo partly drawn) [Example 123, Ethyl N-[N-(3,5-Difluorophenylacetyl)-L-alaninyl]-2-amino-2-phenylpropionate] showed a melting point of 128 to 130 °C. `CCOC(=O)C(NC(=O)[C@H](C)NC(=O)Cc1cc(F)cc(F)c1)C1CCCCC1` (stereo partly drawn) [Example 126, Ethyl N-[N-(3,5-Difluorophenylacetyl)-L-alaninyl]-2-amino-2-cyclohexylacetate] showed a melting point of 146 to 150 °C. `CCOC(=O)[C@H](C)NC(=O)C(NC(=O)CC(C)C)C1CCCCC1` (stereo partly drawn) [Example 128, N-[N-(Isovaleryl)-2-amino-2-cyclohexylacetyl]-L-alanine Ethyl Ester] (Isovaleryl-[ξChg]-Ala-OEt) showed a melting point of 220 to 224 °C. Work on `COC(=O)[C@H](Cc1ccccc1)NC(=O)[C@H](C)NC(=O)Cc1cccnc1` [Example 131, N-[N-(3-Pyridylacetyl)-L-alaninyl]-L-phenylalanine Methyl Ester] yielded a melting point of 150 to 152 °C. `COC(=O)[C@H](Cc1ccccc1)NC(=O)[C@H](C)NC(=O)Cc1ccccn1` [Example 132, N-[N-(2-Pyridylacetyl)-L-alaninyl]-L-phenylalanine Methyl Ester] showed a melting point of 137 to 139 °C. `COC(=O)[C@H](Cc1ccccc1)NC(=O)[C@H](C)NC(=O)Cc1ccncc1` [Example 133, N-[N-(4-Pyridylacetyl)-L-alaninyl]-L-phenylalanine Methyl Ester] showed a melting point of 152 to 154 °C. In the case of `CCOC(=O)C(NC(=O)[C@H](C)NC(=O)Cc1cc(F)cc(F)c1)c1ccccc1F` (stereo partly drawn) [Example 135, Ethyl N-[N-(3,5-Difluorophenylacetyl)-L-alaninyl]-2-amino-2-(2-fluorophenyl)acetate], the melting point is reported as 153 to 170 °C. In the case of `C[C@H](NC(=O)Cc1cc(F)cc(F)c1)C(=O)N[C@H](C(=O)OCC(C)(C)C)c1ccccc1` [Example 138, N-[N-(3,5-Difluorophenylacetyl)-L-alaninyl]-L-phenylglycine Neopentyl Ester], the melting point is reported as 133 to 136 °C. Compound `CC[C@H](NC(=O)[C@H](C)NC(=O)Cc1cc(F)cc(F)c1)C(=O)OC` [Example 160, Methyl N-[N-(3,5-difluorophenylacetyl)-L-alaninyl]-(S)-2-aminobutanoate] has a melting point of 103 to 106 °C. In the case of `COC(=O)C(NC(=O)[C@H](C)NC(=O)Cc1cc(F)cc(F)c1)c1cc2cc(Cl)ccc2s1` (stereo partly drawn) [Example 173, Methyl N-[N-(3,5-Difluorophenylacetyl)-L-alaninyl]-2-amino-2-(5-chlorobenzothiophen-2-yl)acetate], the melting point is reported as 189 to 190 °C. `CCOC(=O)C(NC(=O)[C@H](C)NC(=O)Cc1cc(F)cc(F)c1)c1cc2ccccc2s1` (stereo partly drawn) [Example 174, Ethyl N-[N-(3,5-Difluorophenylacetyl)-L-alaninyl]-2-amino-2-(benzothiophen-2-yl)acetate] gave a melting point of 189 to 190 °C. Work on `COC(=O)C(NC(=O)[C@H](C)NC(=O)Cc1cc(F)cc(F)c1)c1csc2ccccc12` (stereo partly drawn) [Example 175, Methyl N-[N-(3,5-Difluorophenylacetyl)-L-alaninyl]-2-amino-2-(benzothiophen-3-yl)acetate] yielded a melting point of 185 to 186 °C. `COC(=O)C(NC(=O)[C@H](C)NC(=O)Cc1cc(F)cc(F)c1)c1cccs1` (stereo partly drawn) [Example 176, Methyl N-[N-(3,5-Difluorophenylacetyl)-L-alaninyl]-2-amino-2-(2-thienyl)acetate] gave a melting point of 161 to 162 °C. For `CCOC(=O)C(NC(=O)[C@H](C)NC(=O)Cc1cc(F)cc(F)c1)c1ccc2sccc2c1` (stereo partly drawn) [Example 177, Ethyl N-[N-(3,5-Difluorophenylacetyl)-L-alaninyl]-2-amino-2-(benzothiophen-5-yl)acetate], the melting point was 126.5 to 127.5 °C. Compound `COC(=O)[C@H](NC(=O)[C@H](C)NC(=O)Cc1cc(F)cc(F)c1)c1cccs1` [Example 178, Methyl N-[N-(3,5-Difluorophenylacetyl)-L-alaninyl]-(S)-2-amino-2-(2-thienyl)acetate] has a melting point of 180 to 181 °C. For `C[C@H](NC(=O)Cc1cc(F)cc(F)c1)C(=O)N[C@@H](C(=O)OC(C)(C)C)c1cccs1` [Example 179, tert-Butyl N-[N-(3,5-Difluorophenylacetyl)-L-alaninyl]-(S)-2-amino-2-(2-thienyl)acetate], the melting point was 117 to 118 °C. In the case of `COC(=O)[C@@H](NC(=O)[C@H](C)NC(=O)Cc1cc(F)cc(F)c1)c1ccc2cc(OC)ccc2c1` [Example 182, Methyl N-[N-(3,5-Difluorophenylacetyl)-L-alaninyl]-(S)-2-amino-2-(6-methoxy-2-naphthyl)acetate], the melting point is reported as 177 to 178 °C. Work on `COC(=O)C(NC(=O)[C@H](C)NC(=O)Cc1cc(F)cc(F)c1)c1cccc(C(F)(F)F)c1` (stereo partly drawn) [Example 183, Methyl N-[N-(3,5-Difluorophenylacetyl)-L-alaninyl]-2-amino-2-(3-trifluoromethylphenyl)acetate] yielded a melting point of 133 to 134 °C. With `C[C@H](NC(=O)CC1CC1)C(=O)N[C@H](C(=O)OC(C)(C)C)c1ccccc1` [Example 189, N-[N-(Cyclopropylacetyl)-L-alaninyl]-L-phenylglycine tert-Butyl Ester] the melting point was 105 to 107 °C. `CC[C@H](NC(=O)Cc1cc(F)cc(F)c1)C(=O)N[C@H](C(=O)OC(C)(C)C)c1ccccc1` [Example 191, N-[N-(3,5-Difluorophenylacetyl)-(S)-2-aminobutanoyl]-L-phenylglycine tert-Butyl Ester] gave a melting point of 138.7 to 140 °C. For `CC(C)[C@H](NC(=O)Cc1cc(F)cc(F)c1)C(=O)N[C@H](C(=O)OC(C)(C)C)c1ccccc1` [Example 192, N-[N-(3,5-Difluorophenylacetyl)-L-valinyl]-L-phenylglycine tert-Butyl Ester], the melting point was 170.5 to 171.8 °C. With `COC(=O)[C@@H](NC(=O)[C@H](CCSC)NC(=O)Cc1cc(F)cc(F)c1)c1ccccc1` [Example 193, N-[N-(3,5-Difluorophenylacetyl)-L-methioninyl]-L-phenylglycine Methyl Ester] the melting point was 189.3 °C. With `COC(=O)[C@@H](NC(=O)[C@@H](NC(=O)Cc1cc(F)cc(F)c1)C(C)C)c1ccccc1` [Example 194, N-[N-(3,5-Difluorophenylacetyl)-L-valinyl]-L-phenylglycine Methyl Ester] the melting point was 226.5 °C. For `COC(=O)[C@@H](NC(=O)[C@H](CC(C)C)NC(=O)Cc1cc(F)cc(F)c1)c1ccccc1` [Example 196, N-[N-(3,5-Difluorophenylacetyl)-L-leucinyl]-L-phenylglycine Methyl Ester], the melting point was 178.4 °C. `COC(=O)[C@@H](NC(=O)[C@H](Cc1ccccc1)NC(=O)Cc1cc(F)cc(F)c1)c1ccccc1` [Example 197, N-[N-(3,5-Difluorophenylacetyl)-L-phenylalaninyl]-L-phenylglycine Methyl Ester] showed a melting point of 188.3 °C. Work on `COC(=O)[C@@H](NC(=O)CNC(=O)Cc1cc(F)cc(F)c1)c1ccccc1` [Example 198, N-[N-(3,5-Difluorophenylacetyl)glycinyl]-L-phenylglycine Methyl Ester] yielded a melting point of 142.3 °C. `COC(=O)[C@@H](NC(=O)[C@@H](NC(=O)Cc1cc(F)cc(F)c1)c1ccccc1)c1ccccc1` [Example 199, N-[N-(3,5-Difluorophenylacetyl)-L-phenylglycinyl]-L-phenylglycine Methyl Ester] gave a melting point of 222.8 °C. Work on `COC(=O)[C@H](C)NC(=O)[C@H](C)NC(=O)Cc1ccccc1` [Example 200, N-[N-(Phenylacetyl)-L-alaninyl]-L-alanine Methyl Ester] (HELM PEPTIDE1{[O=C(Cc1ccccc1)[*:2]].A.A.[CO[*:1]]}$$$$V2.0) yielded a melting point of 140.5 to 142 °C.
